Measured values taken from patent US12274684B2, “Treatment of vasculopathy with prostacyclin and mesenchymal stem cells” (United Therapeutics Corporation, priority 2013, dated 2025).
“And” between values parts separate entries of the source, which are not always exact repeats. Equal entries are not always repeated.

Test system: human bone marrow MSC
Assay: Microarray gene expression analysis of MSC (Illumina Human HT12 Expression BeadChip)
Assay type: cell-based
Conditions: Tre(+) 250 μg/mL, 24 h
Protocol: Human bone marrow MSC were expanded and seeded into six (6) T225 flasks using standard growth medium (Table 1). At 95-99% confluency, cells were thoroughly washed with PBS. Three (3) flasks were replenished with basal media containing 250 μg/mL treprostinil, (+)Tre, and the remaining three (3) flasks were replenished with unsupplemented basal media, (−)Tre. After 24 hours of culture, representative images were captured from (+) Tre and (−) Tre cultures. Conditioned media was collected from each replicate, divided into two samples of appropriate volumes, and analyzed separately for: 1) secreted proteins (Myriad RBM InflammationMAP® 1.0) and 2) exosome RNA content. Cells were lysed directly from culture flasks, processed for total RNA isolation, and analyzed for gene expression by microarray (Illumina Human HT12 Expression BeadChip). Microarray gene expression analysis was also performed on MSC from cultures without (−) or with (+) 250 ug/mL treprostinil. Three (3) biological replicates from each condition were analyzed. Of the 77,612 sequences identified among all replicates, only 24,273 were detected above the arbitrary background of 50 counts. 2,984 RNA sequences were unique to Tre(−) cultures, while 1,781 RNA sequences were unique to Tre(+) cultures (panel A). Genes detected in both conditions were further analyzed for differential expression (panel). […] Genes that are expressed only in Tre(−) cultures (that is to say, completely turned off in the Tre(+) cultures) are shown in Table 5.

CCCCC[C@H](O)CC[C@@H]1[C@H]2Cc3cccc(OCC(=O)O)c3C[C@H]2C[C@H]1O [treprostinil]
ASPM (NM_018136) expression, Rep 1-3: 20 counts and 27 counts and 30 counts
ATF3 (NM_001030287) expression, Rep 1-3: 1001 counts and 1579 counts and 1041 counts
ATP6V0D2 (NM_152565) expression, Rep 1-3: 547 counts and 893 counts and 499 counts
BMP6 (NM_001718) expression, Rep 1-3: 1210 counts and 1581 counts and 1181 counts
C11orf96 (NM_001145033) expression, Rep 1-3: 2050 counts and 2381 counts and 1885 counts
C13orf33 (NM_032849) expression, Rep 1-3: 17304 counts and 24329 counts and 16255 counts
CALD1 (NM_033140) expression, Rep 1-3: 0 counts
CD55 (NM_000574) expression, Rep 1-3: 7472 counts and 9108 counts and 6555 counts
CD55 (NM_001114752) expression, Rep 1-3: 2497 counts and 3119 counts and 2372 counts
COL6A3 (NM_004369) expression, Rep 1-3: 5033 counts and 4570 counts and 4303 counts
CPA4 (NM_016352) expression, Rep 1-3: 51 counts and 62 counts and 45 counts
CXCL12 (NM_199168) expression, Rep 1-3: 853 counts and 627 counts and 534 counts
DDAH1 (NM_001134445) expression, Rep 1-3: 136 counts and 155 counts and 107 counts
DKFZp547J0510 (CDNA FLJ42650 fis, clone BRACE3027478) expression, Rep 1-3: 183 counts and 135 counts and 125 counts
DUSP1 (NM_004417) expression, Rep 1-3: 825 counts and 1489 counts and 963 counts
FAM84A (NM_145175) expression, Rep 1-3: 63 counts and 40 counts and 32 counts
GDF5 (NM_000557) expression, Rep 1-3: 83 counts and 64 counts and 65 counts
GDF15 (NM_004864) expression, Rep 1-3: 11450 counts and 18978 counts and 10088 counts
GDNF (NM_000514) expression, Rep 1-3: 689 counts and 845 counts and 824 counts
GPRC5A (NM_003979) expression, Rep 1-3: 4151 counts and 5981 counts and 3920 counts
HAS1 (NM_001523) expression, Rep 1-3, second entry: 1355 counts and 730 counts and 789 counts
HSD11B1 (NM_005525) expression, Rep 1-3: 822 counts and 966 counts and 758 counts
IDH1 (NM_005896) expression, Rep 1-3: 1920 counts and 2406 counts and 1792 counts
IER3 (NM_003897) expression, Rep 1-3: 2769 counts and 3595 counts and 2558 counts
IGFBP1 (NM_000596) expression, Rep 1-3: 5468 counts and 8123 counts and 5321 counts
IL6 (NM_000600) expression, Rep 1-3: 6490 counts and 8445 counts and 5640 counts
IL11 (NM_000641) expression, Rep 1-3: 851 counts and 1237 counts and 700 counts
ISLR (NM_005545) expression, Rep 1-3: 612 counts and 543 counts and 490 counts
KTN1 (NM_001079522) expression, Rep 1-3: 531 counts and 612 counts and 596 counts
KYNU (NM_003937) expression, Rep 1-3: 867 counts and 922 counts and 797 counts
LIPG (NM_006033) expression, Rep 1-3: 1552 counts and 1946 counts and 1607 counts
MEST (NM_177525) expression, Rep 1-3: 367 counts and 268 counts and 258 counts
METTL7A (NM_014033) expression, Rep 1-3: 146 counts and 95 counts and 85 counts
MYLK (NM_053025) expression, Rep 1-3: 0 counts
NAP1L3 (NM_004538) expression, Rep 1-3: 68 counts and 35 counts and 42 counts
NGFR (NM_002507) expression, Rep 1-3: 1217 counts and 1818 counts and 1074 counts
NR4A2 (NM_006186) expression, Rep 1-3: 635 counts and 810 counts and 592 counts
OLFML1 (NM_198474) expression, Rep 1-3 (Table 4): 177 counts and 128 counts and 114 counts
PALLD (NM_001166110) expression, Rep 1-3: 1158 counts and 885 counts and 1055 counts
PAQR5 (NM_017705) expression, Rep 1-3: 703 counts and 745 counts and 664 counts
PDE4B (NM_001037339) expression, Rep 1-3: 1160 counts and 1371 counts and 1056 counts
PDE4D (NM_001197221) expression, Rep 1-3: 1130 counts and 1170 counts and 1071 counts
PDE4D (NM_001197222) expression, Rep 1-3: 1417 counts and 2044 counts and 1570 counts
PDE5A (NM_033430) expression, Rep 1-3: 174 counts and 286 counts and 206 counts
PDK4 (NM_002612) expression, Rep 1-3: 1296 counts and 1726 counts and 1173 counts
PITPNC1 (NM_181671) expression, Rep 1-3: 702 counts and 1007 counts and 764 counts
PLIN2 (NM_001122) expression, Rep 1-3: 82301 counts and 124225 counts and 72254 counts
PLOD2 (NM_000935) expression, Rep 1-3: 1169 counts and 1679 counts and 925 counts
PRELP (NM_002725) expression, Rep 1-3: 159 counts and 104 counts and 80 counts
PRKAG2 (NM_024429) expression, Rep 1-3: 7233 counts and 8152 counts and 6080 counts
PTP4A1 (NM_003463) expression, Rep 1-3: 849 counts and 696 counts and 510 counts
RCAN1 (NM_203418) expression, Rep 1-3: 7766 counts and 11997 counts and 6962 counts
RCAN2 (NM_001251974) expression, Rep 1-3: 129 counts and 109 counts and 76 counts
RND3 (NM_005168) expression, Rep 1-3: 48372 counts and 65016 counts and 41881 counts
S100A4 (NM_002961) expression, Rep 1-3: 149 counts and 114 counts and 113 counts
SAT1 (transcript variant 2, non-coding RNA) expression, Rep 1-3: 1141 counts and 1529 counts and 954 counts
SCG2 (NM_003469) expression, Rep 1-3: 1014 counts and 1187 counts and 1069 counts
SEC31A (NM_001077207) expression, Rep 1-3: 737 counts and 887 counts and 573 counts
SIK1 (NM_173354) expression, Rep 1-3: 1144 counts and 1320 counts and 1086 counts
SLC2A12 (NM_145176) expression, Rep 1-3: 110 counts and 114 counts and 92 counts
SLC3A2 (NM_001013251) expression, Rep 1-3: 31831 counts and 39703 counts and 29042 counts
SLC6A15 (NM_182767) expression, Rep 1-3: 1201 counts and 1568 counts and 1062 counts
